Results as given in patent US10450613B2, “EGFR/NEDD9/TGF-β interactome and methods of use thereof for the identification of agents having efficacy in the treatment of hyperproliferative disorders” (Fox Chase Cancer Center, priority 2007, dated 2019).

How the values were obtained:
[1] = test system: A431 cells; experiment: siRNA library sensitization screen, Alamar blue (CellTiter Blue) viability, sensitization index (SI) with erlotinib, panitumumab, U0126, CPT11 vs DMSO; assay type: cell-based, human; conditions: siRNA against the named gene, false discovery rate set at 5%; for Ratio (CPT11): sensitization to CPT11; for Ratio (Erlotinib): sensitization to erlotinib
From the text: The custom siRNA library targeting 638 human genes was designed and synthesized with two siRNA duplexes for each gene target (Qiagen, Valencia, Calif.). Transfection conditions were established for the A431 […] (K-Ras wt, p53 mutant) cell line (data not shown) using PLK1 & GL2 siRNA controls to achieve Z′ values of 0.5 or greater. IC values using erlotinib, panitumumab, and camptothecin (CPT11) were established (data not shown). Details of establishment of Z′ factor for transfections, and statistical consideration for selection of preliminary positive candidates graphically outlined in FIG. 4B, and based on standard approaches described in detail in Whitehurst et al., (2007) Nature 446:815). For each gene targeted, two independent siRNA duplexes were combined and arrayed in 96-well plates with a layout intended to seed in regular positive siRNA (targeting PLK1) and negative control siRNA (targeting insect luciferase GL2, Thermo Fisher Scientific, USA) amongst test siRNAs. A reverse transfection protocol was used where siRNA at final concentration of 50 nM was mixed with Dharmafect 1 transfection reagent according to the manufacturer's instructions (Thermo Fisher, USA). Cells (3500 per well, resuspended in 1% FBS/DMEM) were added directly to wells using an automated liquid dispenser. At 24 hr following transfection, two replica plates were treated with drugs at previously established IC30 or 0.02% DMSO diluted in culture media. The viability at 96 hr post-transfection was assessed using Alamar blue (CellTiter Blue Viability Assay, Promega, USA). Dose-responses for each drug and cell line were retested in parallel with each screen.
For screening, A431 cells were transfected with siRNA followed by exposure to vehicle (0.02% DMSO), or drug used at inhibitory concentrations of 30% KA. Viability was determined for each target gene and normalized to the averaged GL2 viability on each plate. Sensitization index (SI) was calculated for each individual well on a 96-well plate as SI=(Vdrug/GL2drug)/(VDMSO/GL2DMSO), where V was viability in wells transfected with targeting duplexes and GL2 was the averaged viability of 4 wells with non-targeting negative control siRNA on the same plate. All calculations were automated using cellHTS package within open source Bioconductor Package (on the web at bioconductor.org) (Gentleman et al. (2004) Genome Biol. 5:R80). The effect of drug treatment on viability was measured based on the normalized viabilities in the drug treated and vehicle wells using Limma (Smyth, G. K. (2004) Statistical Applications in genetics and molecular biology 3, Article 3). Limma borrows strength across genes based on an empirical Bayes approach and identifies statistically significant changes in viability by combining information from a set of gene-specific tests. Hits were identified based on statistical significance as well as biological significance. Statistical significance was determined by p-value controlled for the false discovery rate (FDR) using the Benjamini-Hochberg step-up method (Benjamini et al. (1995) J. Royal Stat Soc B 57:289) to account for multiple testing. […] Biological significance was arbitrarily defined as an increase or decrease in SI greater than 15%. Hits identified as statistically and biologically significant were further validated.
Primary sensitizing hits obtained with erlotinib and/or cetuximab were further tested with erlotinib and DMSO in the A431 cell line by using 4 siRNA duplexes individually (the two originally used in the screen, plus two new non-overlapping RNA oligoribonucleotides), to confirm the sensitization phenotype at 10 nM and 50 nM concentrations. Hits were considered as validated by this method if at least 2 out of 4 siRNA reproduced the sensitization phenotype with SI≤0.85, FDR≤20% for each individual siRNA sequence in at least two independent experiments. […]

[2] = test system: A431 cells; experiment: Drug synergy testing (Chou-Talalay CI), viability; assay type: cell-based, human; conditions: 72 hours, CI <1 synergy, <0.5 strong synergy
Protocol: (§1) The coefficient of interaction (CI) between pharmacological inhibitors was established by the Chou-Talalay method (Chou et al., (1984) Adv Enzyme Regul 22:27). The software package CalcuSyn (BioSoft, UK) was used to automate calculations. Briefly, for each drug tested, an IC50 curve was established in each cell line, and used to select combination doses of drugs for subsequent synergy tests. 3500 cells were plated per well in 96-well plates. After 24 hours, cells were treated with serial dilutions of individual inhibitors, or combinations of two inhibitors maintained at a constant molar ratio. After 72 hours incubation, cell viability was measured using either CellTiter Blue (Promega, USA) or a WST1 assay (Roche Applied Science, Indianapolis, Ind.). The CI values for each dose and corresponding cytotoxicity were expressed as the fraction affected (Fa) and were calculated using CalcuSyn computer software and presented as Fa-CI plots. CI values <1 indicate synergy, and <0.5 strong synergy, between the two agents in producing cytotoxic effect.

[3] = test system: HCT116 cells; experiment: Drug synergy testing (Chou-Talalay CI), viability; assay type: cell-based, human; conditions: HCT116; 72 hours; CI <1 synergy, <0.5 strong synergy
Protocol: as §1

[4] = test system: A431 cells; experiment: Cell motility, wound healing assay; assay type: cell-based, human; conditions: 0.5 μM erlotinib with 0.5 μM Stattic or 0.25 μM Ro-318220, 18 hours
Protocol: Soft agar assays were done essentially as described (10). Cells were seeded at 2000 cells per well and grown for 2-3 weeks. Colonies were stained with thiazolyl blue tetrazolium bromide, and scored using a Nikon SMZ1500 microscope coupled with Cool Snap charge coupled device camera (Roper Scientific, Inc., Tucson, Ariz.) with Image Pro-Plus software (Media Cybernetics, Silver Spring, Md.). Survival curves were based on at least two concentration points, with values determined in at least two separate experiments, with each assay done in duplicate. Drug interactions were calculated as above using CalcuSyn software (Biosoft, Ferguson, Mo.) to establish the combination index (CI). For motility assays, movement of A431 cells grown in 1% FCS into a scratched area of the monolayer was monitored with a phase contrast 10× objective using an inverted microscope (Nikon TE2000). Images were obtained every 20 min for 18 hours. Areas of migration were estimated using MetaMorph software. For both studies, analysis of variance was used to determine the treatment effect for each comparison. The logarithm of normalized ratios (to vehicle control) was used in the analysis. Multiple hypothesis testing was accounted for by the false discovery rate method of Benjamini & Hochberg (supra).

[5] = test system: AKT; experiment: Western analysis of AKT activation in A431 lysates (siRNA or inhibitors), basal and EGF-stimulated; assay type: cell-based, human; conditions: serum starvation or EGF stimulation (FIG. 16)
Protocol: To measure the effect of siRNAs on the activity of EGFR effectors, cells were transfected with siRNA, and the culture media replaced with glutamine-supplemented serum-free DMEM at 24 hrs post-transfection. After overnight incubation, cells were treated with DMSO, erlotinib or PHA-680632 for 2 hrs, then either left untreated, or stimulated with EGF at 15 ng/ml for 15 minutes. Cell extracts were prepared using M-PER™ mammalian protein extraction buffer (Thermo Scientific, Rockford, Ill.) supplemented with the Halt™ phosphatase inhibitor cocktail (Thermo Scientific, Rockford, Ill.) and the Complete Mini™ protease inhibitor cocktail (Roche Diagnostics Gmbh, Manheim, Germany). Extracts were centrifuged at 15,000 g for 10 min at 4° C. Western signal detection was performed using antibodies to indicated proteins with LiCor technology (Lincoln, Nebr., USA) or standard X-ray film.

[6] = test system: A431, HCT116, DLD-1, DKS-8, LoVo, SCC61, PANC-1 and MIA PaCa-2 cell lines; experiment: Cell line specificity of hit activity: siRNA sensitization to erlotinib, cetuximab and CPT11, and intrinsic viability; assay type: cell-based, human; conditions: network analysis of stronger hits (FIG. 14A)
Protocol: Cell line specificity of hit activity. Of the confirmed set of 61 siRNA targets identified for erlotinib in A431 cells, 45 were further tested for sensitization to erlotinib, cetuximab and camptothecin in A431 versus refractory adenocarcinoma cell lines for which optimal transfection conditions and drug sensitivity had been established. […] SI and statistical significance were calculated as in the validation experiments. All experiments were performed at least three times independently.
In subsequent data analysis, two approaches were used. […] For all experiments performed with a given cell:drug combination (e.g., A431:erlotinib, or HCT116:CPT11) averages were determined based on at least three experimental runs. […]
In additional experiments, we comparatively profiled the efficacy of the hit panel as sensitizers of erlotinib, cetuximab, and CPT11 across a set of cell lines, including A431, the colorectal adenocarcinoma cell lines HCT116, DLD-1, DKS-8, and LoVo, the head and neck squamous cell carcinoma cell line SCC61, and the pancreatic adenocarcinoma cell lines PANC-1 and MIA PaCa-2 (FIG. 13A). […] To compensate for this difference, we analyzed the data in two ways: first, by conventional threshold analysis (FIG. 13A, left), and second, by assessing the rank order of sensitization phenotype, using relaxed statistical criteria (FIG. 13A, right; see Materials and Methods). […]

[7] = test system: cancer cells; experiment: Drug synergy testing (Chou-Talalay CI), cell line not stated (FIG. 17B); assay type: cell-based
Protocol: as §1

[8] = test system: A431 cells; experiment: Phosphoproteomic analysis, Proteome Profiler array of 46 signaling proteins; assay type: cell-based, human; conditions: A431, serum starved, EGF-stimulated (FIG. 19A)
Protocol: For phosphoproteomic analysis, we used the Proteome Profiler™ array (R&D Systems, Minneapolis, Minn., USA) according to the manufacturer's protocol. In brief, A431 cells were grown for 24 hours in DMEM supplemented with L-glutamine and 1% FBS to 70% confluency. Cells then were either serum starved overnight or remained in the same media. Serum starved and cells incubated in 1% serum were either left untreated or incubated with IC30 concentrations of inhibitors for 3 hours. […] Serum-starved cells were subsequently stimulated with recombinant EGF (Sigma-Aldrich, USA) at 15 ng/mL for 15 minutes before lysis. For a subset of phospho-proteins, phosphorylation status was confirmed by Western blot. Quantification was done using ImageJ software.

With “GAB2 (sense CACCAATTCTGAAGACAACTA; target sequence only, further chemistry not given here)” the “Ratio (CPT11)” value [1] was 0.83.

With `Cn1cc(C2=C(c3cn(CCCSC(=N)N)c4ccccc34)C(=O)NC2=O)c2ccccc21` [Ro-318220] the “Synergy with erlotinib in reducing viability (Chou-Talalay CI)” value [2] was “synergized very significantly”, the “Synergy with erlotinib in reducing viability (Chou-Talalay CI)” value [3] was “synergized very significantly” and the “Cell motility, inhibitor in combination with erlotinib” value [4] was “significantly reduced tumor cell motility”.

With `Cn1cc(C2=C(c3cn(C4CCN(Cc5ccccn5)CC4)c4ccccc34)C(=O)NC2=O)c2ccccc21` [enzastaurin] the “Synergy with erlotinib in reducing viability (Chou-Talalay CI)” value [2] was “synergized very significantly”, the “Synergy with erlotinib in reducing viability (Chou-Talalay CI)” value [3] was “synergized very significantly” and the “Akt S473 phosphorylation, inhibitor in combination with erlotinib” value [5] was “significantly reduced phosphorylation”.

In the case of “PRKACB: siRNA duplexes of the custom library targeting PRKACB (sense CAGCCTGTGTAGTGTGACAAA; target sequence only, antisense strand not given here)”, the “Ratio (CPT11)” value [1] is reported as 0.43, the “Ratio (Erlotinib)” value [1] is reported as 0.53 and the “Ratio (Panitumumab)” value ([1]; sensitization to panitumumab) is reported as 0.63. For the same molecule, the “Sensitizing activity of stronger hits across cell lines” value [6] was “strong sensitizers”.

With “MAP3K1 (sense CACGCATGTCAAATTCTCATA; target sequence only, antisense strand not given here)” the “Ratio (Erlotinib)” value [1] was 0.66.

`O=C(Nc1cccc(Nc2nccc(Nc3cccc(C(F)(F)F)c3)n2)c1)C1CC1` [C1368] was tested, and the “Synergy with erlotinib (Chou-Talalay CI)” value [7] was “synergized”.

With `C#Cc1cccc(Nc2ncnc3cc(OCCOC)c(OCCOC)cc23)c1` [erlotinib] the “Phosphorylation of 46 signaling proteins, single agent” value [8] was “blocked EGF-induced activation of multiple signaling pathways”.

With `O=[N+]([O-])c1ccc2c(c1)S(=O)(=O)C=C2` [Stattic] the “Synergy with erlotinib in reducing viability (Chou-Talalay CI)” value [2] was “synergized with erlotinib”, the “Synergy with erlotinib in reducing viability (Chou-Talalay CI)” value [3] was “synergized with erlotinib” and the “Cell motility, inhibitor in combination with erlotinib” value [4] was “no statistically significant synergy”. The “Akt S473 phosphorylation, inhibitor in combination with erlotinib” value [5] was “significantly reduced phosphorylation”.

“GRB14 (sense AAGAATGTATTTCACCTGCAA; target sequence only, antisense strand not given here)” was tested, and the “Ratio (Erlotinib)” value [1] was 0.54.
